Reference: publication PMC10816221, “A Versatile Aldehyde: Ferredoxin Oxidoreductase from the Organic Acid Reducing Thermoanaerobacter sp. Strain X514” (International Journal of Molecular Sciences, 2024)

Molecular target: T1, AORX514 (AOR-His) (Thermoanaerobacter pseudethanolicus, UniProt B0K8P3)
T1 construct: gene Teth39_0850; full length, C-terminal 6xHis (plasmid pJM009), made in Thermoanaerobacter kivui MB014; W-containing, FeS cluster
Assay: acetaldehyde-dependent viologen reduction at […] nm; substrate inhibition kinetics
Type: biochemical
Settings: benzyl viologen as electron acceptor, routine assay 50 mM TRIS pH 7.5, 65 °C, anoxic

T1 sequence (B0K8P3 1-599): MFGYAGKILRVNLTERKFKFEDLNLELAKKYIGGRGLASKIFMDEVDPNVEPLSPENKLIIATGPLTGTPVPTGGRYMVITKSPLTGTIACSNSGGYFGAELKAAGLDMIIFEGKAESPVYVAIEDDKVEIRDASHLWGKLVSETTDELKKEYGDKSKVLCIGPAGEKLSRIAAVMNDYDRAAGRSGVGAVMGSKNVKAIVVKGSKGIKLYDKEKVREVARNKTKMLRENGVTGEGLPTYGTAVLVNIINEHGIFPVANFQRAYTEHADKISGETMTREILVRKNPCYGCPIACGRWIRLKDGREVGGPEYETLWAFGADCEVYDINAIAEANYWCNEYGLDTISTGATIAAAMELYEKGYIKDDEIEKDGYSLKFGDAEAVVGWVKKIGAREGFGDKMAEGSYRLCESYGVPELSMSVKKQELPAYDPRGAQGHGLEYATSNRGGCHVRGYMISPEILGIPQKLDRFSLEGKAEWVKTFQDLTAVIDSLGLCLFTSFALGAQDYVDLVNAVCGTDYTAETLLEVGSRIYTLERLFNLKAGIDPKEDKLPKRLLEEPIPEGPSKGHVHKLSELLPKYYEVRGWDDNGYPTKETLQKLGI

For `CC=O` [Acetaldehyde], the ki was 8.7 ± 1.3 mM.
